Source: patent US20230295066A1, “Process for the Efficient Preparation of (Bio)-Alkanediols” (Symrise AG, priority 2020, published 2023)

Columns and labels:
Aspergillus brasiliensis = experiment: Minimum Inhibitory Concentration (MIC) test, alkanediol mixtures; assay type: cell-based; details: for MICA: Comp. A alone; for MICB: Comp. B alone
Method: (§1) The Minimum Inhibitory Concentration (MIC) test is a test on growth inhibition. The estimation of MICs is executed in 96 well plates. Through the comparison of bacterial growth with positive and negative controls via optical density (OD), different concentrations of given test substances are evaluated.
(§2) Bacteria were cultivated under adjusted conditions based on information of the German Collection of Microorganisms and Cell Cultures (DSMZ) and stored in 50% glycerol prior to use. Afterwards, the following method was applied: Growth medium (according to microorganism) was added to each well of the microplate. Then, the test-substances were added in different concentrations, positive controls (water controls only with medium) and negative controls (benchmarks according to organism). Finally, the microorganisms were added in a concentration of 10^6 CFU/ml (CFU=colony forming units). The incubation of the microplates was carried out at appropriate conditions.
(§3) According to the resulting growth, substance concentrations are labelled either as inhibiting or not and MIC is defined as the lowest concentration where a complete growth inhibition is visible. Experiments at concentration limits (highest concentration labelled as growth and lowest concentration labelled as inhibiting) are performed at least twice.
(§4) Minimum Inhibitory Concentration (MIC) are given in ppm.
To verify that the tested combinations act synergistically against microorganisms of the natural microbiota of mammalian skin, a corresponding experiment was conducted with Aspergillus brasiliensis, a well-known pathogen on the skin. The synergistic activities of different alkanediol mixtures including a 1,2-alkanediol (substance A) and a 2,3-alkanediol (substance B) in ratios as specified in the following Table 5 were determined by measuring the MIC of the mixture as indicated in methods section.
In order to calculate the synergy index with MIC values, the Kull equation (I) was used as follows:
SI=(MICmix×PA)/MICA+(MICmix×PB)/MICB
wherein • SI is the Synergy Index according to Kull • MICA is the MIC value for Substance A in ppm • MICB is the MIC value for Substance B in ppm • MICmix is the MIC value for the mixture of substances A and B and C in ppm • PA is the proportion of the substance A in the mixture • PB is the proportion of the substance B in the mixture

Staphylococcus aureus = experiment: Minimum Inhibitory Concentration (MIC) test, synergy with antimicrobials; assay type: cell-based; details: for MICA: MIC value for Substance A alone; for MICC: MIC value for Substance C alone; for MICB: MIC value for Substance B alone
Method: as §1, §2, §3, §4
The synergistic activity of different combinations of 1,2-nonanediol (C9 nonanediol) and 1,2-heptanediol (C7 heptanediol) as components A and C in combination with different antimicrobial compounds (component B) was determined by measuring the corresponding Minimum Inhibitory Concentrations (MIC).
To verify that the tested combinations act synergistically against microorganisms of the natural microbiota of mammalian skin, a corresponding experiment was conducted with Staphylococcus aureus, a well-known pathogen on the skin. The synergistic activities of 1,2-nonanediol (1,2-C9), 1,2-heptanediol (1,2-C7), 2,3-nonanediol (2,3-C9), 2,3-heptanediol (2,3-C7) and different antimicrobial compounds were determined by measuring the MIC of the mixture as indicated above.
In order to calculate the synergy index with MIC values, the Kull equation (equation 6) was used as follows:
SI=(MICmix×PA)/MICA+(MICmix×PB)/MICB+(MICmix×PC)/MICC Equation (6): Minimum Inhibitory Concentration
wherein • SI is the Synergy Index according to Kull • MICA is the MIC value for Substance A in ppm • MICB is the MIC value for Substance B in ppm • MICC is the MIC value for Substance C in ppm • MICmix is the MIC value for the mixture of substances A and B and C in ppm • PA is the proportion of the substance A in the mixture • PB is the proportion of the substance B in the mixture • PC is the proportion of the substance C in the mixture

[1] = Solubility in sunflower oil; assay type: physicochemical; details: result in words
[2] = system: reactive oxygen species (ROS) on ex vivo skin; experiment: DCF assay, ROS score on ex vivo skin biopsies; assay type: cell-based; details: Cumene hydroperoxide 0.5M
Method: A dichlorofluorescein test (DCF) assay was performed in order to determine the amount of reactive oxygen species (ROS) on ex vivo skin treated with different test samples in a lipophilic or an aqueous/alcoholic system as described below.
DCF assay—assay principle: Ex vivo skin was incubated with 2′,7′-dichlorodihydrofluorescein diacetate at 37° C., 5% CO2. After PBS washing, the samples were exposed or not to cumene hydroperoxide. Immediately after exposure, ex vivo skin samples were frozen in liquid nitrogen and 5 μm cryostat sections were made and fixed with acetone to allow the visualization of fluorescence generated by ROS in cells of the reconstructed skins. The resulting fluorescence was measured at EX/EM 504/524 nm. Green fluorescence was quantified in ex vivo skin using ImageJ software. The depth of immunostaining was measured as follows: green DCFH-DE positive cells were automatically detected using Histolab software and the distance between dermal epidermal junction and the deepest positive cells were measured in each condition. Means were compared using a student's test. Two means were considered statistically different when p<0.005.
The image acquisition was performed by using Olympus BX51 microscope and Olympus DP70 camera. For each skin sample two skin sections have been taken and the related fluorescent images acquired and analysed. Thus, for each test condition, 12 images have been acquired and analysed (i.e. 12 data). The analysis of fluorescence has been performed within the dermis area. For each image the upper dermis has been analysed by evaluating the fluorescence through modified Image-J application (NIH, USA). The analysed area is selected from the upper part by following the perimeter of the basal lamina, to the deep dermis, by carefully avoiding the risk of including irregularities and agglomerates, such as blood vessels, sebaceous glands, hair follicles. The obtained value has been normalized upon the dimension of the selected area.
In addition, as positive control an AOX mix is always co-tested, i.e., as benchmark for the ROS analysis. The AOX mix is a mixture of the following antioxidants: 15% vitamin C, 1% vitamin E, 0.5% ferulic acid in a EtOH/H2O (50:50) mixture.
ROS score method description: The pigmentation score is based on the following process steps: • (1) Analysis of the image based on pixel grey intensities; • (2) Selection of an informative area excluding the pixel area not covered from tissue; • (3) Transformation of pixel grey intensities in degrees of L*; • (4) Normalization of the obtained values on the ratio between the selected area and the area of the slide.
An increased level of ROS (reactive oxygen species) led to an increased amount of fluorescence. […]

Molecule: CCCCC(O)CO (stereo not drawn) [1,2-C6, 1,2-hexanediol]
- MICA (Aspergillus brasiliensis): 7500 ppm

Molecule: CCCCCC(O)CO (stereo not drawn) [1,2-C7, 1,2-heptanediol]
- MICA (Aspergillus brasiliensis): 5000 ppm
- MICA (Staphylococcus aureus): 7500 ppm

Molecule: CCCCCCC(O)CO (stereo not drawn) [1,2-C8, 1,2-octanediol]
- MICA (Aspergillus brasiliensis): 2500 ppm
- Solubility in sunflower oil / oil phase [1]: tends to precipitate or recrystallize

Molecule: CCCCCCCC(O)CO (stereo not drawn) [1,2-C9, 1,2-nonanediol]
- MICA (Aspergillus brasiliensis): 500 ppm
- MICA (Staphylococcus aureus): 1000 ppm

Molecule: CCCC(O)C(C)O (stereo not drawn) [2,3-C6, 2,3-hexanediol]
- MICB (Aspergillus brasiliensis): 20000 ppm

Molecule: CCCCC(O)C(C)O (stereo not drawn) [2,3-C7, 2,3-heptanediol]
- MICB (Aspergillus brasiliensis): 7500 ppm
- MICC (Staphylococcus aureus): 20000 ppm

Molecule: CCCCCC(O)C(C)O (stereo not drawn) [2,3-C8, 2,3-octanediol]
- MICB (Aspergillus brasiliensis): 2500 ppm
- Solubility in sunflower oil / oil phase [1]: good solubility

Molecule: CCCCCCC(O)C(C)O (stereo not drawn) [2,3-C9, 2,3-nonanediol]
- MICB (Aspergillus brasiliensis): 1000 ppm
- MICC (Staphylococcus aureus): 2500 ppm

Molecule: O=C(CCc1ccc(O)cc1)Nc1ccccc1C(=O)O [50 ppm DHAvD, Dihydroavenanthramide D]
- ROS score, Mean Score ([2]; ex vivo skin, mean of 12 tests): 1.72
- D percent vs. - A cumene ([2]; ROS score): −14%
- D percent vs. untreated cumene ([2]; ROS score): −21%
- D percent vs. untreated/No cumene ([2]; ROS score): 1645%

Molecule: OCc1ccccc1 [Benzyl alcohol, reference compound]
- MICB (Staphylococcus aureus): 5000 ppm

Molecule: CCCCCCCC(=O)NO [Capryl hydroxamic acid, reference compound]
- MICB (Staphylococcus aureus): 1000 ppm

Molecule: o-Cymen-5-ol [reference compound]
- MICB (Staphylococcus aureus): 250 ppm
